The values that follow are results of earlier work, collected in patent US8968725B2, “Genipin cross-linked fibrin gels” (University of Vermont and State Agricultural College, priority 2010, dated 2015).

This data set relates to mice. To be noted: mouse, in vivo, iv.

The LD50 is the dose expected to kill half of the subjects tested. With `COC(=O)C1=CO[C@@H](O)[C@H]2C(CO)=CC[C@H]12` [Genipin, Methyl (1R,2R,6S)-2-hydroxy-9-(hydroxymethyl)-3-oxabicyclo[4.3.0]nona-4,8-diene-5-carboxylate], the LD50 was 382 mg/kg.
